Patent US9695155B2, “Herbicidal substituted pyrimidinyloxy benzene compounds” (E. I. DU PONT DE NEMOURS AND COMPANY, priority 2013, dated 2017)

What was measured:
corn [1] = test: Test A postemergence; assay type: in vivo, Zea mays
Method in brief: (§1)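 Scoring: eye-based comparison with untreated controls, 0 for no effect through 100 for complete control, at about day 10. Treatments: directed soil spray preemergence; foliar spray postemergence on 2–10 cm plants at the one- to two-leaf stage. Medium: loam soil with sand.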

barnyardgrass [2] = test: Test B flooded paddy test; assay type: in vivo, Echinochloa crus-galli; conditions: Flood, 250 g ai/ha; 0 to 100 scale where 0 is no effect and 100 is complete control
Method in brief: (§2)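 Visual ratings on a 0 to 100 scale, where 100 means complete control, compared treated plants with controls after 13 to 15 days in a greenhouse. Treatment went into paddy water 3 cm deep over the soil, applied to plants at the 2-leaf stage.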

sedge, umbrella = test: Test B flooded paddy test; assay type: in vivo, Cyperus difformis; conditions: Flood, 250 g ai/ha; 0 to 100 scale where 0 is no effect and 100 is complete control
Method in brief: as §2

pigweed [3] = test: Test A postemergence; assay type: in vivo, Amaranthus retroflexus
Method in brief: as §1

wheat [4] = test: Test A preemergence; assay type: in vivo, Triticum aestivum
Method in brief: as §1

corn [5] = test: Test A preemergence; assay type: in vivo, Zea mays; conditions: for Corn plant response rating: 500 g ai/ha
Method in brief: as §1

pigweed [6] = test: Test A preemergence; assay type: in vivo, Amaranthus retroflexus
Method in brief: as §1

barnyardgrass [7] = test: Test A preemergence; assay type: in vivo, Echinochloa crus-galli; conditions: for Barnyardgrass plant response rating: 500 g ai/ha
Method in brief: as §1

giant foxtail [8] = test: Test A postemergence; assay type: in vivo, Setaria faberii
Method in brief: as §1

Heteranthera limosa = test: Test B flooded paddy test; assay type: in vivo; conditions: Flood, 250 g ai/ha; 0 to 100 scale where 0 is no effect and 100 is complete control
Method in brief: as §2

rice = test: Test B flooded paddy test; assay type: in vivo, Oryza sativa; conditions: Flood, 250 g ai/ha; 0 to 100 scale where 0 is no effect and 100 is complete control
Method in brief: as §2

morningglory [9] = test: Test A postemergence; assay type: in vivo, Ipomoea spp.
Method in brief: as §1

barnyardgrass [10] = test: Test A postemergence; assay type: in vivo, Echinochloa crus-galli
Method in brief: as §1

morningglory [11] = test: Test A preemergence; assay type: in vivo, Ipomoea spp.
Method in brief: as §1

velvetleaf [12] = test: Test A preemergence; assay type: in vivo, Abutilon theophrasti
Method in brief: as §1

velvetleaf [13] = test: Test A postemergence; assay type: in vivo, Abutilon theophrasti
Method in brief: as §1

large (Lg) crabgrass [14] = test: Test A preemergence; assay type: in vivo, Digitaria sanguinalis; conditions: for Crabgrass, Large plant response rating: 500 g ai/ha
Method in brief: as §1

large (Lg) crabgrass [15] = test: Test A postemergence; assay type: in vivo, Digitaria sanguinalis
Method in brief: as §1

giant foxtail [16] = test: Test A preemergence; assay type: in vivo, Setaria faberii
Method in brief: as §1

wheat [17] = test: Test A postemergence; assay type: in vivo, Triticum aestivum
Method in brief: as §1

[18] = 125 g ai/ha, 0 to 100 scale where 0 is no effect and 100 is complete control
[19] = 500 g ai/ha, 0 to 100 scale, 0 no effect, 100 complete control
[20] = 500 g ai/ha, 0 to 100 scale where 0 is no effect and 100 is complete control
[21] = 500 g ai/ha, 0 to 100 scale, 0 no effect, 100 complete control, approx. 10 days
[22] = 0 to 100 scale, 0 no effect, 100 complete control, approx. 10 days
[23] = 1000 g ai/ha, 0 to 100 scale, 0 no effect, 100 complete control
[24] = 1000 g ai/ha, 0 to 100 scale, 0 no effect, 100 complete control, approx. 10 days
[25] = 0 to 100 scale where 0 is no effect and 100 is complete control

FC(F)(F)c1cccc(Oc2ncc(Br)cn2)c1-n1cc(Br)cn1 [Compound 77]
Plant response rating, Corn (corn [1]; [18]): 20
Plant response rating, Corn (corn [1]; [19]): 40
Plant response rating, Barnyardgrass (barnyardgrass [2]): 0
Plant response rating, Sedge, Umbrella (sedge, umbrella): 70
Plant response rating, Pigweed (pigweed [3]; [18]): 100
Plant response rating, Pigweed (pigweed [3]; [20]): 100
Plant response rating, Wheat (wheat [4]; [18]): 0
Wheat plant response rating (wheat [4]; [21]): 0
Plant response rating, Corn (corn [5]; [18]): 0
Corn plant response rating (corn [5]; [22]): 0
Plant response rating, Pigweed (pigweed [6]; [18]): 100
Pigweed plant response rating (pigweed [6]; [21]): 100
Plant response rating, Barnyardgrass (barnyardgrass [7]; [18]): 50
Barnyardgrass plant response rating (barnyardgrass [7]; [22]): 90
Plant response rating, Foxtail, Giant (giant foxtail [8]; [18]): 50
Plant response rating, Foxtail, Giant (giant foxtail [8]; [20]): 90
Plant response rating, Ducksalad (Heteranthera limosa): 40
Plant response rating, Rice (rice): 20
Plant response rating, Morningglory (morningglory [9]; [18]): 70
Plant response rating, Morningglory (morningglory [9]; [20]): 100
Plant response rating, Barnyardgrass (barnyardgrass [10]; [18]): 40
Plant response rating, Barnyardgrass (barnyardgrass [10]; [19]): 70
Plant response rating, Morningglory (morningglory [11]; [18]): 10
Morningglory plant response rating (morningglory [11]; [21]): 60
Plant response rating, Velvetleaf (velvetleaf [12]; [18]): 60
Velvetleaf plant response rating (velvetleaf [12]; [21]): 100
Plant response rating, Velvetleaf (velvetleaf [13]; [18]): 80
Plant response rating, Velvetleaf (velvetleaf [13]; [20]): 100
Plant response rating, Crabgrass, Large (large (Lg) crabgrass [14]; [18]): 90
Crabgrass, Large plant response rating (large (Lg) crabgrass [14]; [22]): 100
Plant response rating, Crabgrass, Large (large (Lg) crabgrass [15]; [18]): 50
Plant response rating, Crabgrass, Large (large (Lg) crabgrass [15]; [19]): 90
Plant response rating, Foxtail, Giant (giant foxtail [16]; [18]): 90
Foxtail, Giant plant response rating (giant foxtail [16]; [21]): 100
Plant response rating, Wheat (wheat [17]; [18]): 0
Plant response rating, Wheat (wheat [17]; [20]): 30

Cc1cnn(-c2c(C#N)cccc2Oc2ncc(Cl)cn2)c1 [Compound 95]
Plant response rating, Corn (corn [1]; [18]): 10
Plant response rating, Corn (corn [1]; [20]): 70
Plant response rating, Barnyardgrass (barnyardgrass [2]): 0
Plant response rating, Sedge, Umbrella (sedge, umbrella): 50
Plant response rating, Pigweed (pigweed [3]; [18]): 100
Plant response rating, Pigweed (pigweed [3]; [20]): 100
Plant response rating, Wheat (wheat [4]; [18]): 0
Plant response rating, Corn (corn [5]; [18]): 0
Corn plant response rating (corn [5]; [22]): 40
Plant response rating, Pigweed (pigweed [6]; [18]): 90
Pigweed plant response rating (pigweed [6]; [21]): 100
Plant response rating, Barnyardgrass (barnyardgrass [7]; [18]): 50
Barnyardgrass plant response rating (barnyardgrass [7]; [22]): 100
Plant response rating, Foxtail, Giant (giant foxtail [8]; [18]): 40
Plant response rating, Foxtail, Giant (giant foxtail [8]; [20]): 80
Plant response rating, Ducksalad (Heteranthera limosa): 40
Plant response rating, Rice (rice): 0
Plant response rating, Morningglory (morningglory [9]; [18]): 60
Plant response rating, Morningglory (morningglory [9]; [20]): 90
Plant response rating, Barnyardgrass (barnyardgrass [10]; [18]): 50
Plant response rating, Barnyardgrass (barnyardgrass [10]; [20]): 80
Plant response rating, Morningglory (morningglory [11]; [18]): 50
Morningglory plant response rating (morningglory [11]; [21]): 100
Plant response rating, Velvetleaf (velvetleaf [12]; [18]): 90
Plant response rating, Velvetleaf (velvetleaf [13]; [18]): 70
Plant response rating, Velvetleaf (velvetleaf [13]; [20]): 100
Plant response rating, Crabgrass, Large (large (Lg) crabgrass [14]; [18]): 100
Crabgrass, Large plant response rating (large (Lg) crabgrass [14]; [22]): 100
Plant response rating, Crabgrass, Large (large (Lg) crabgrass [15]; [18]): 40
Plant response rating, Crabgrass, Large (large (Lg) crabgrass [15]; [20]): 90
Plant response rating, Foxtail, Giant (giant foxtail [16]; [18]): 100
Foxtail, Giant plant response rating (giant foxtail [16]; [21]): 100
Plant response rating, Wheat (wheat [17]; [18]): 0
Plant response rating, Wheat (wheat [17]; [20]): 40

N#Cc1cccc(Oc2ncc(C(F)(F)F)cn2)c1-n1cc(Br)cn1 [Compound 113]
Plant response rating, Corn (corn [1]; [18]): 10
Plant response rating, Corn (corn [1]; [20]): 60
Plant response rating, Barnyardgrass (barnyardgrass [2]): 0
Plant response rating, Sedge, Umbrella (sedge, umbrella): 0
Plant response rating, Pigweed (pigweed [3]; [20]): 80
Plant response rating, Wheat (wheat [4]; [18]): 0
Plant response rating, Corn (corn [5]; [18]): 0
Corn plant response rating (corn [5]; [22]): 20
Plant response rating, Pigweed (pigweed [6]; [18]): 100
Pigweed plant response rating (pigweed [6]; [21]): 100
Plant response rating, Barnyardgrass (barnyardgrass [7]; [18]): 0
Barnyardgrass plant response rating (barnyardgrass [7]; [22]): 90
Plant response rating, Foxtail, Giant (giant foxtail [8]; [18]): 10
Plant response rating, Foxtail, Giant (giant foxtail [8]; [20]): 60
Plant response rating, Ducksalad (Heteranthera limosa): 0
Plant response rating, Rice (rice): 0
Plant response rating, Morningglory (morningglory [9]; [20]): 30
Plant response rating, Barnyardgrass (barnyardgrass [10]; [18]): 0
Plant response rating, Barnyardgrass (barnyardgrass [10]; [20]): 80
Plant response rating, Morningglory (morningglory [11]; [18]): 0
Morningglory plant response rating (morningglory [11]; [21]): 30
Plant response rating, Velvetleaf (velvetleaf [12]; [18]): 10
Plant response rating, Velvetleaf (velvetleaf [13]; [20]): 80
Plant response rating, Crabgrass, Large (large (Lg) crabgrass [14]; [18]): 80
Crabgrass, Large plant response rating (large (Lg) crabgrass [14]; [22]): 100
Plant response rating, Crabgrass, Large (large (Lg) crabgrass [15]; [18]): 20
Plant response rating, Crabgrass, Large (large (Lg) crabgrass [15]; [20]): 70
Plant response rating, Foxtail, Giant (giant foxtail [16]; [18]): 20
Foxtail, Giant plant response rating (giant foxtail [16]; [21]): 90
Plant response rating, Wheat (wheat [17]; [20]): 60

C=C(C)c1cn(-c2c(Br)cccc2Oc2ncc(Cl)cn2)nn1 [Compound 114]
Plant response rating, Corn (corn [1]; [23]): 70
Plant response rating, Barnyardgrass (barnyardgrass [2]): 0
Plant response rating, Sedge, Umbrella (sedge, umbrella): 30
Plant response rating, Pigweed (pigweed [3]; [23]): 100
Wheat plant response rating (wheat [4]; [24]): 40
Plant response rating, Corn (corn [5]; [23]): 20
Pigweed plant response rating (pigweed [6]; [24]): 100
Plant response rating, Barnyardgrass (barnyardgrass [7]; [23]): 90
Plant response rating, Foxtail, Giant (giant foxtail [8]; [23]): 90
Plant response rating, Ducksalad (Heteranthera limosa): 50
Plant response rating, Rice (rice): 0
Plant response rating, Morningglory (morningglory [9]; [23]): 80
Plant response rating, Barnyardgrass (barnyardgrass [10]; [23]): 100
Morningglory plant response rating (morningglory [11]; [24]): 10
Velvetleaf plant response rating (velvetleaf [12]; [24]): 100
Plant response rating, Velvetleaf (velvetleaf [13]; [23]): 100
Plant response rating, Crabgrass, Large (large (Lg) crabgrass [14]; [23]): 100
Plant response rating, Crabgrass, Large (large (Lg) crabgrass [15]; [23]): 90
Foxtail, Giant plant response rating (giant foxtail [16]; [24]): 100
Plant response rating, Wheat (wheat [17]; [23]): 60

O=Cc1cccc(Oc2ncc(Cl)cn2)c1-n1cc(I)cn1 [Compound 182]
Corn plant response rating (corn [1]; [18]): 0
Plant response rating, Corn (corn [1]; [20]): 0
Plant response rating, Barnyardgrass (barnyardgrass [2]): 0
Plant response rating, Sedge, Umbrella (sedge, umbrella): 0
Pigweed plant response rating (pigweed [3]; [18]): 30
Plant response rating, Pigweed (pigweed [3]; [20]): 90
Wheat plant response rating (0 to 100 scale) (wheat [4]; 125 g ai/ha): 0
Wheat plant response rating (wheat [4]; [20]): 0
Corn plant response rating (0 to 100 scale) (corn [5]; 125 g ai/ha): 0
Corn plant response rating (corn [5]; [25]): 0
Pigweed plant response rating (0 to 100 scale) (pigweed [6]; 125 g ai/ha): 90
Pigweed plant response rating (pigweed [6]; [20]): 100
Barnyardgrass plant response rating (0 to 100 scale, 0 is no effect, 100 is complete control) (barnyardgrass [7]; 125 g ai/ha): 0
Barnyardgrass plant response rating (barnyardgrass [7]; [25]): 20
Foxtail, Giant plant response rating (giant foxtail [8]; [18]): 0
Plant response rating, Foxtail, Giant (giant foxtail [8]; [20]): 0
Plant response rating, Ducksalad (Heteranthera limosa): 0
Plant response rating, Rice (rice): 0
Morningglory plant response rating (morningglory [9]; [18]): 0
Plant response rating, Morningglory (morningglory [9]; [20]): 0
Barnyardgrass plant response rating (barnyardgrass [10]; [18]): 0
Plant response rating, Barnyardgrass (barnyardgrass [10]; [20]): 0
Morningglory plant response rating (0 to 100 scale) (morningglory [11]; 125 g ai/ha): 0
Morningglory plant response rating (morningglory [11]; [20]): 0
Velvetleaf plant response rating (0 to 100 scale) (velvetleaf [12]; 125 g ai/ha): 0
Velvetleaf plant response rating (velvetleaf [12]; [20]): 0
Velvetleaf plant response rating (velvetleaf [13]; [18]): 30
Plant response rating, Velvetleaf (velvetleaf [13]; [20]): 30
Crabgrass, Large plant response rating (0 to 100 scale) (large (Lg) crabgrass [14]; 125 g ai/ha): 0
Crabgrass, Large plant response rating (large (Lg) crabgrass [14]; [25]): 30
Crabgrass, Large plant response rating (large (Lg) crabgrass [15]; [18]): 0
Plant response rating, Crabgrass, Large (large (Lg) crabgrass [15]; [20]): 0
Foxtail, Giant plant response rating (0 to 100 scale) (giant foxtail [16]; 125 g ai/ha): 0
Foxtail, Giant plant response rating (giant foxtail [16]; [20]): 20
Wheat plant response rating (wheat [17]; [18]): 0
Plant response rating, Wheat (wheat [17]; [20]): 0
